{"source": "ChEMBL document CHEMBL1201862", "about": "“PubChem BioAssay data set” (2004)", "key": {"[1]": {"molecular_target": "T1, Oxysterols receptor LXR-beta (Homo sapiens, UniProt P55055)", "T1 sequence (P55055 whole entry)": "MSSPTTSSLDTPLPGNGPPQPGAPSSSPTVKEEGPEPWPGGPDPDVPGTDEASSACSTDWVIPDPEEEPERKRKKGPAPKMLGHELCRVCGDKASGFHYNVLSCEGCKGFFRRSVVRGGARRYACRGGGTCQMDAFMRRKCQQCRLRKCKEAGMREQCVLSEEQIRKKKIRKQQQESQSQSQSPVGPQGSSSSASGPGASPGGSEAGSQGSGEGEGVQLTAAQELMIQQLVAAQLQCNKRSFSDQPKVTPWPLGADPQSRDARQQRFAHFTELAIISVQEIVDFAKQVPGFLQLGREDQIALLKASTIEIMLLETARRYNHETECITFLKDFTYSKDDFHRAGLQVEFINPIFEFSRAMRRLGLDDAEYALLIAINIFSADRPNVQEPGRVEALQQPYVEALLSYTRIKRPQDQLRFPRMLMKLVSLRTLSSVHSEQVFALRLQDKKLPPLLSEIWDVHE", "type": "functional, cell-based"}, "Beta-galactosidase": {"molecular_target": "Beta-galactosidase (Escherichia coli, UniProt Q8VNN2)", "sequence (Q8VNN2 whole entry)": "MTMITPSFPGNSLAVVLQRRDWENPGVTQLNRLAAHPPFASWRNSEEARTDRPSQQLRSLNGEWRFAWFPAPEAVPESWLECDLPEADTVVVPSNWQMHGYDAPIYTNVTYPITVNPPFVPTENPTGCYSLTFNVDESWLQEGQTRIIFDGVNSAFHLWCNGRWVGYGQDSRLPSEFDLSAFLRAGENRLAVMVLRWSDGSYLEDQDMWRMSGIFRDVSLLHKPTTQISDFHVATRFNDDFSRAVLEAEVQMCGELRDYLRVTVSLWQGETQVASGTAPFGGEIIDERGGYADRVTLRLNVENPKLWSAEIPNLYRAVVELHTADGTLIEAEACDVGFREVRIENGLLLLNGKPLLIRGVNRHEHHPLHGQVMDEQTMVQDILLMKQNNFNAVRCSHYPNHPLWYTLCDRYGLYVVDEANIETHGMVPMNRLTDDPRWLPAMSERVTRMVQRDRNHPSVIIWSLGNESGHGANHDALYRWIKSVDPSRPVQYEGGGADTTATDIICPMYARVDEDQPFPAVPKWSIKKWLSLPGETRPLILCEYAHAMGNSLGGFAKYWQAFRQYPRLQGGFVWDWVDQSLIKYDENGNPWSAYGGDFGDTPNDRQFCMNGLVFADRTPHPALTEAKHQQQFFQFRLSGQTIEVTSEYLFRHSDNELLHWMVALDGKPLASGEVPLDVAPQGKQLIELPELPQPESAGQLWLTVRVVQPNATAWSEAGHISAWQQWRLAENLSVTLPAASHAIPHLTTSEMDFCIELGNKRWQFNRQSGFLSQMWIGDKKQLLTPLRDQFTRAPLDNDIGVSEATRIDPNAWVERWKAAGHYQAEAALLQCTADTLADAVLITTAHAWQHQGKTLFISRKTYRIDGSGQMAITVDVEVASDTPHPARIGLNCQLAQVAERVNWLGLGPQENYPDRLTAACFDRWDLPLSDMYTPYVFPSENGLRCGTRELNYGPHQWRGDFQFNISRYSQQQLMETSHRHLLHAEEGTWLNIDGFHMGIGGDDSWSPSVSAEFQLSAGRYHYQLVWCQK", "assay": "Dose response counterscreen for EBI2 assay utilizing the enzyme, b-galactosidase.", "type": "functional"}, "Beta-lactamase [2]": {"molecular_target": "Beta-lactamase (Salmonella choleraesuis (strain SC-B67), UniProt Q5J463)", "sequence (Q5J463 whole entry)": "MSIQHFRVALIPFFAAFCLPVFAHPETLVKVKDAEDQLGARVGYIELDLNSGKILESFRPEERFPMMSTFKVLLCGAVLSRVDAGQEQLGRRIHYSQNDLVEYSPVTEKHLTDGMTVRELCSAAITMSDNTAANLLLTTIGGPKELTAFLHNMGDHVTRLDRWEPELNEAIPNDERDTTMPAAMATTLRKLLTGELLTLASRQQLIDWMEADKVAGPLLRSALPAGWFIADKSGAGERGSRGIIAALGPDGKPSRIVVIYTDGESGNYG", "assay": "Epi-absorbance-based counterscreen for selective VIM-2 inhibitors: dose response biochemical high throughput screening assay to identify inhibitors of TEM-1 serine-beta-lactamase."}, "[3]": {"molecular_target": "DNA dC->dU-editing enzyme APOBEC-3G (Homo sapiens, UniProt Q9HC16)", "sequence (Q9HC16 whole entry)": "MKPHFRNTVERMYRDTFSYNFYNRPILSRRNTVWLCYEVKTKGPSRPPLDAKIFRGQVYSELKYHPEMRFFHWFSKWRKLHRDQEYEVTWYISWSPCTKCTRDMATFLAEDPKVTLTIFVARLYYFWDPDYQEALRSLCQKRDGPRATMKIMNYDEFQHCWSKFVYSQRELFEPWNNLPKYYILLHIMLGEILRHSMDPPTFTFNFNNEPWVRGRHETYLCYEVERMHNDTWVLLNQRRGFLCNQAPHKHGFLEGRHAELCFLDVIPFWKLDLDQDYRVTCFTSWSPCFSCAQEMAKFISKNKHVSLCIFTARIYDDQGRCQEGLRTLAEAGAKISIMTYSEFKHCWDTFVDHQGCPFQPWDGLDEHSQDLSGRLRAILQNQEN", "assay": "Dose Response confirmation of small molecule APOBEC3G DNA Deaminase Inhibitors via a fluorescence-based single-stranded DNA deaminase assay. [Related pubchem assays (depositor defined):AID493012, AID493028]", "type": "functional"}, "Beta-lactamase [4]": {"molecular_target": "T2, Beta-lactamase (Pseudomonas aeruginosa, UniProt Q79MP6)", "T2 sequence (Q79MP6 whole entry)": "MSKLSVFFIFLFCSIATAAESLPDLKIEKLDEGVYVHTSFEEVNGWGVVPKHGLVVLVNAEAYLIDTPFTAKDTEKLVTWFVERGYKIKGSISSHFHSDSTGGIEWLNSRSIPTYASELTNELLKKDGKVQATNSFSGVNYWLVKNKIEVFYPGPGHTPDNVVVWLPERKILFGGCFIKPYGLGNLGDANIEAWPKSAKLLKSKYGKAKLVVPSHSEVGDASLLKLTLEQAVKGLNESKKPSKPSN", "assay": "[…] counterscreen for selective VIM-2 inhibitors: dose response biochemical high throughput screening assay to identify inhibitors of IMP-1 metallo-beta-lactamase."}, "[5]": {"molecular_target": "DNA dC->dU-editing enzyme APOBEC-3A (Homo sapiens, UniProt P31941)", "sequence (P31941 whole entry)": "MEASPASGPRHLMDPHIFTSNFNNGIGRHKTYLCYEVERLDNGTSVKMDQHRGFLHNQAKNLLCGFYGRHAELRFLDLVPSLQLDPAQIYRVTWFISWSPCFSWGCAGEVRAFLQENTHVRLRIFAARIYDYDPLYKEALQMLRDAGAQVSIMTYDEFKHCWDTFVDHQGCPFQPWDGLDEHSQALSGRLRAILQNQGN", "assay": "APOBEC3A DNA deaminase inhibitors, dose response, biochemical (AID 504722)", "type": "functional"}, "Beta-lactamase [6]": {"molecular_target": "T2, Beta-lactamase", "assay": "IMP-1 metallo-beta-lactamase inhibitors, dose response, selectivity assay for VIM-2 inhibitor project, biochemical, epi-absorbance (AID 1920)"}, "[7]": {"assay": "cytotoxicity in HEK-293T cells, dose response, cytotoxicity control for BCR NF-kB inhibitor project, luminescence, B-cell screen hits (AID 489021);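 further: cells exposed to compound for about 14 hours before viability readout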", "type": "functional, cell-based"}, "[8]": {"molecular_target": "T3, Sentrin-specific protease 1 (Homo sapiens, UniProt Q9P0U3)", "T3 sequence (Q9P0U3 whole entry)": "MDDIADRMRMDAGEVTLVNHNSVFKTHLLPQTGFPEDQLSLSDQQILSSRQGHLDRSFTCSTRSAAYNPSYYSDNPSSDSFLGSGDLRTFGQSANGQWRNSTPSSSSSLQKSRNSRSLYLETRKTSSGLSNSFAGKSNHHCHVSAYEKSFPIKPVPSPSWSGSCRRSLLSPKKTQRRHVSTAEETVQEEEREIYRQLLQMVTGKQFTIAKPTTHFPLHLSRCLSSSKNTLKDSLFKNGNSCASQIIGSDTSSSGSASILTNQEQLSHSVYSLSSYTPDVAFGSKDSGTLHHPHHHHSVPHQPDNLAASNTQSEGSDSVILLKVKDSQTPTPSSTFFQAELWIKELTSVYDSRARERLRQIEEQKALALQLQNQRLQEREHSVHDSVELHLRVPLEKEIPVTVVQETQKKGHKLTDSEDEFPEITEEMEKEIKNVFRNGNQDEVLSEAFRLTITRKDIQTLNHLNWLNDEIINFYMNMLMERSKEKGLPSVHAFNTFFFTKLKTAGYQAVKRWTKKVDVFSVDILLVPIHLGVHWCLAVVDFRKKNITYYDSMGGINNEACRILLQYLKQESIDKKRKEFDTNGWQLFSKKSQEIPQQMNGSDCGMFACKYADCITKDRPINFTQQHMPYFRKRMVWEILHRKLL", "assay": "potency of human SENP1 inhibitors, dose response, biochemical, kinetic FRET (AID 651697)", "type": "functional", "settings": "read-out: IC50_Mean"}, "[9]": {"molecular_target": "T3, Sentrin-specific protease 1", "assay": "Dose response confirmation of small molecule inhibitors of the catalytic domain of the SUMO protease, SENP1 in a FRET assay.", "type": "functional", "settings": "read-out: IC50_Mean"}, "Albumin": {"molecular_target": "Albumin (Bos taurus, UniProt P02769)", "sequence (P02769 whole entry)": "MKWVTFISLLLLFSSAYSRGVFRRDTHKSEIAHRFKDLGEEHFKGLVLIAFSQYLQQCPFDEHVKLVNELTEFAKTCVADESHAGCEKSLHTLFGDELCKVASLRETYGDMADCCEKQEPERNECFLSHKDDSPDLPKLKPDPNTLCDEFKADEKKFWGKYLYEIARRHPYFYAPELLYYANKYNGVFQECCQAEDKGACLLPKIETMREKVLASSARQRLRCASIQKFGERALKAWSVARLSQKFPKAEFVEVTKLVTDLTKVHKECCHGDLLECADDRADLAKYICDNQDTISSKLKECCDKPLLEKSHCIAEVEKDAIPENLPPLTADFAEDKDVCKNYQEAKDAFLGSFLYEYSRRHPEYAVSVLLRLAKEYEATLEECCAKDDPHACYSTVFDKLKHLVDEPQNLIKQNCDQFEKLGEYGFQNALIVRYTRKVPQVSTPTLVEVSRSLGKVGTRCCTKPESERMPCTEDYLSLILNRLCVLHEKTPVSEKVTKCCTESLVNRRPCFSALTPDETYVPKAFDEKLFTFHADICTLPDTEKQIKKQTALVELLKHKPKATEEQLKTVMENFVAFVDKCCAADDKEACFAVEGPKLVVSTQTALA", "assay": "Counterscreen for inhibitors of T-cell receptor (TCR)-CD3 interaction: Fluorescence-based biochemical high throughput dose response assay to identify inhibitors of T-cell receptor (TCR)-CD3 interaction using a TAMRA-labeled BSA probe.", "type": "functional"}, "[10]": {"molecular_target": "T4, Nuclear receptor subfamily 0 group B member 1 (Homo sapiens, UniProt P51843)", "T4 sequence (P51843 whole entry)": "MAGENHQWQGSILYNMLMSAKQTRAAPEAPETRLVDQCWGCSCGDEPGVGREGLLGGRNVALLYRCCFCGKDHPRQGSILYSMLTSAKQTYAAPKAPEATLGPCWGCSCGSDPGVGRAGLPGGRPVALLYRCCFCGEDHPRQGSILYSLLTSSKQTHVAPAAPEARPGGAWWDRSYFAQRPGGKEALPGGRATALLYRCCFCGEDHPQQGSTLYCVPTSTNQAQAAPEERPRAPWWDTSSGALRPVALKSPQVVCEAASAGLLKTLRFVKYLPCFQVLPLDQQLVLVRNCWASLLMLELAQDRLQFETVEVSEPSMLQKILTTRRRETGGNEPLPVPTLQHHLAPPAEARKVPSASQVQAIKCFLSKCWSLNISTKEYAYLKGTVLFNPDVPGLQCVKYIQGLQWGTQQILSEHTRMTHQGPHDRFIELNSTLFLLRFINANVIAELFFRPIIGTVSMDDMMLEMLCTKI", "type": "functional, cell-based"}, "cells": {"assay": "cells", "type": "functional, cell-based"}, "Paired box protein Pax-8": {"molecular_target": "Paired box protein Pax-8 (Homo sapiens, UniProt Q06710)", "assay": "inhibitors of PAX8-driven TPO luciferase reporter, dose response, RMG-I cells, cherry-pick (AID 687027);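 further: luciferase reporter driven by Pax8 target thyroperoxidase promoter measured by SteadyGlo luminescence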", "type": "functional, cell-based"}, "Vero": {"tested_on": "Vero", "assay": "Vero cell toxicity, dose response, cytotoxicity control, plate reader, cherry-pick samples (AID 687020)", "type": "functional, cell-based", "settings": "Chlorocebus sabaeus"}, "[11]": {"molecular_target": "Melanin-concentrating hormone receptor 1 (Homo sapiens, UniProt Q99705)", "sequence (Q99705 whole entry)": "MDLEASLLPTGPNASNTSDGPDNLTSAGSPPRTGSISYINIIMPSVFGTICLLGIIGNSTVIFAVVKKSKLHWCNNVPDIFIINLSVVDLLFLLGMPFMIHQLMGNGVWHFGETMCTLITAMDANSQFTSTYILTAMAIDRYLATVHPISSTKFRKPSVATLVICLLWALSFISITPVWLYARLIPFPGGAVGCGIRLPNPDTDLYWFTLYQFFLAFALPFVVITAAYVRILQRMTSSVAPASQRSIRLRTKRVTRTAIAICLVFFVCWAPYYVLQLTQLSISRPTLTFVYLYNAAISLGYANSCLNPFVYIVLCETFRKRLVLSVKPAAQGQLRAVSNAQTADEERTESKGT", "assay": "Fluorescence-based counterscreen for antagonists of the G-protein coupled receptor 7 (GPR7): cell-based high throughput dose response assay to identify antagonists of the melanin-concentrating hormone receptor 1 (MCHR1).", "type": "functional"}, "[12]": {"molecular_target": "T5, Long-chain-fatty-acid--AMP ligase FadD28 (Mycobacterium tuberculosis, UniProt P9WQ59)", "T5 sequence (P9WQ59 whole entry)": "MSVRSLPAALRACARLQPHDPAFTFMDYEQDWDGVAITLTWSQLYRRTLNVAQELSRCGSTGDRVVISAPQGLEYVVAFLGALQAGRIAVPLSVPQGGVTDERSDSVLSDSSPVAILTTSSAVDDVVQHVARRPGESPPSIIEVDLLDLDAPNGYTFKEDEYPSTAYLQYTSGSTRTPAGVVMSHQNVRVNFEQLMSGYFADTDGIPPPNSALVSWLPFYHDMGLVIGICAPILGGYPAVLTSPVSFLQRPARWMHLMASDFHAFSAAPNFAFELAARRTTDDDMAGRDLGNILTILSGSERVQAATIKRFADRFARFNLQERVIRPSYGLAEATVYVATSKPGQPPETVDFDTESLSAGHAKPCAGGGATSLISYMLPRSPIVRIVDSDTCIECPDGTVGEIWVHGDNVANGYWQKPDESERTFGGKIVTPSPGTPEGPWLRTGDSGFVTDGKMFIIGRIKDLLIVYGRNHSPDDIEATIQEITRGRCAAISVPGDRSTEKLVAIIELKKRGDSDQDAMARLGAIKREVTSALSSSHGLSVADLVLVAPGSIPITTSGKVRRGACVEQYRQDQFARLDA", "assay": "Fluorescence polarization aasay to screen for inhibitors that compete for the binding of FadD28 to a bisubstrate Measured in Biochemical System Using Plate Reader - 2147-01_Inhibitor_Dose_CherryPick_Activity.", "type": "functional, Mycobacterium tuberculosis H37Rv"}, "[13]": {"molecular_target": "T6, Neuropeptides B/W receptor type 1 (Homo sapiens, UniProt P48145)", "T6 sequence (P48145 whole entry)": "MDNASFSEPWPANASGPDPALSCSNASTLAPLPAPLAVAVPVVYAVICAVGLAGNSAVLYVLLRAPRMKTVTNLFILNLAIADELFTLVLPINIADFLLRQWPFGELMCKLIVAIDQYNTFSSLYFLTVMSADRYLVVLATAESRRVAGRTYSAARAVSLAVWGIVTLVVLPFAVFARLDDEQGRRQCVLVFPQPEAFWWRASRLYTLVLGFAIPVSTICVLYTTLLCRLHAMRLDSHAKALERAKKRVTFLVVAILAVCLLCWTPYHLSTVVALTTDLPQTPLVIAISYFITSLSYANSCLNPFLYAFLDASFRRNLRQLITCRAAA", "assay": "Fluorescence-based dose response cell-based high throughput screening assay to identify antagonists of the G-protein coupled receptor 7 (GPR7). [Related pubchem assays: 1952 (Screening assay (GPR7 antagonists).), 1880 (Summary AID.)]", "type": "functional"}, "[14]": {"molecular_target": "T7, Rac GTPase-activating protein 1 (Homo sapiens, UniProt Q9H0H5)", "T7 sequence (Q9H0H5 whole entry)": "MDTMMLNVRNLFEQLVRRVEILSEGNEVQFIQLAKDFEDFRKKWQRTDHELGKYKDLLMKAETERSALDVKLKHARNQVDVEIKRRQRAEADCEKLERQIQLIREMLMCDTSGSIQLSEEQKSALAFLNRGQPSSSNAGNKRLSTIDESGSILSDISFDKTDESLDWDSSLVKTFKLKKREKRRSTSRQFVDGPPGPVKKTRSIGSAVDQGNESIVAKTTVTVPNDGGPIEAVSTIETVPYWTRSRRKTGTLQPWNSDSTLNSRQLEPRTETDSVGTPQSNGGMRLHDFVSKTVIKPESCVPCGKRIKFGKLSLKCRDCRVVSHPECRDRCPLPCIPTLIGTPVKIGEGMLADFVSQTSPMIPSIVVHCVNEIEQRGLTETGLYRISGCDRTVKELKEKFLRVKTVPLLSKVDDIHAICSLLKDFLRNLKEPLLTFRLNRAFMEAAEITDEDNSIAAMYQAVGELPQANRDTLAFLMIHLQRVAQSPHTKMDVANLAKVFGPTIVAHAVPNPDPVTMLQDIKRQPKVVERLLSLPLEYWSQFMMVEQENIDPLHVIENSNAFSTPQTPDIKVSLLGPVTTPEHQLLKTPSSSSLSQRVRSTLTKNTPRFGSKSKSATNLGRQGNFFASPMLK", "assay": "MgcRacGAP GTPase-activating activity inhibitors, confirmation, biochemical, ADP Hunter fluorescence, primary and confirmatory (AID 624330)", "type": "functional"}, "[15]": {"molecular_target": "5-hydroxytryptamine receptor 2A (Mus musculus, UniProt P35363)", "sequence (P35363 whole entry)": "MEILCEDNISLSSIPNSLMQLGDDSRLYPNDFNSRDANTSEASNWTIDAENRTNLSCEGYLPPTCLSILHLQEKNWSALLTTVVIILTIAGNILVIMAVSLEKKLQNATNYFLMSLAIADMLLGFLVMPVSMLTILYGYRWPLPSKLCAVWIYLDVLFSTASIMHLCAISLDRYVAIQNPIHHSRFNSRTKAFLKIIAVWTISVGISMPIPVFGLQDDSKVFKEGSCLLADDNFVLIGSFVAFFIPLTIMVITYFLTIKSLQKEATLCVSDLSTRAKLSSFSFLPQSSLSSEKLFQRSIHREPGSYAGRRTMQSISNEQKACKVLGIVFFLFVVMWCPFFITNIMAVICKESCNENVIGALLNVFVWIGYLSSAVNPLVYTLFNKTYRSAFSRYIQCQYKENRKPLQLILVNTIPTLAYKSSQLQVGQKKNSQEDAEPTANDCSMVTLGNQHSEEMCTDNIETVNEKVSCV", "type": "functional, cell-based"}, "Mu-type opioid receptor": {"molecular_target": "Mu-type opioid receptor (Homo sapiens, UniProt P35372)", "sequence (P35372 whole entry)": "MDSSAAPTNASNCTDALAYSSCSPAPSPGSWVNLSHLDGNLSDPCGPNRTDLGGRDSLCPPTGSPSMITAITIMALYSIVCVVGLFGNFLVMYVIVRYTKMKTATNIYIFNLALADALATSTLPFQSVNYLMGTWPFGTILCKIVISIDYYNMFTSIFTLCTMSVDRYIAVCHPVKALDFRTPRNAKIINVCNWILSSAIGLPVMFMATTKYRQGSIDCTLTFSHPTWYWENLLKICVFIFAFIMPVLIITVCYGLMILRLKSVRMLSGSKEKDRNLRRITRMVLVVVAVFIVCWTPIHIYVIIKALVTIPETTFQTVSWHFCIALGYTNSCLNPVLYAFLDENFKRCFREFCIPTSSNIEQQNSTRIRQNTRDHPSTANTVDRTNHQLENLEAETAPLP", "type": "functional, cell-based"}}, "note": "Active and inactive are the calls of the source."}
{"smiles": "O=C(Nc1ccc(Cl)cn1)c1cc2ccccc2o1", "values": [{"measurement": "EC50", "setting": "[1]", "result": "> 67.5 µM (inactive)"}]}
{"smiles": "Cc1ccc(Oc2ccc(Oc3ccc(C)cc3)nn2)cc1", "values": [{"measurement": "IC50", "setting": "Beta-galactosidase", "result": "> 80 µM (inactive)"}]}
{"smiles": "Cn1c(-c2sccc2OCc2ccccc2)n[nH]c1=S", "values": [{"measurement": "IC50", "setting": "Beta-lactamase [2]", "result": "> 59.6 µM (inactive)"}, {"measurement": "IC50", "setting": "[3]", "result": "2.8 µM (active)"}, {"measurement": "IC50", "setting": "Beta-lactamase [4]", "result": "> 59.6 µM (inactive)"}, {"measurement": "IC50", "setting": "[5]", "result": "> 100 µM (inactive)"}, {"measurement": "IC50", "setting": "Beta-lactamase [6]", "result": "> 59.6 µM (inactive)"}]}
{"smiles": "N#CC1=C(N)Oc2cc(Nc3ccccc3)ccc2C1c1ccncc1", "note": "(stereo unspecified)", "values": [{"measurement": "IC50", "setting": "[7]", "result": "48.3 µM (inactive)"}, {"measurement": "IC50", "setting": "[8]", "result": "41.9 µM (inactive)"}, {"measurement": "IC50", "setting": "[9]", "result": "30.5 µM (inactive)"}]}
{"smiles": "O=C(NNC(=O)c1ccc2ccccc2c1O)c1cccs1", "values": [{"measurement": "IC50", "setting": "Albumin", "result": "> 94.1 µM (inactive)"}]}
{"smiles": "COc1cc(-c2cnc3c(NC=O)cc(-c4ccc(C)cc4)cn23)cc(OC)c1OC", "values": [{"measurement": "IC50", "setting": "[10]", "result": "> 0.834 µM (active)"}, {"measurement": "IC50", "setting": "cells", "result": "> 67.5 µM (inactive)"}, {"measurement": "AC50", "setting": "Paired box protein Pax-8", "result": "< 0.26 µM (active)"}]}
{"smiles": "CCOC(=O)[C@@H]1[C@H]2COc3ccc(Br)cc3[C@@H]2N2C(=O)N(c3ccc(C)cc3)C(=O)[C@]12C", "values": [{"measurement": "AC50", "setting": "Vero", "result": "35.3 µM (active)"}]}
{"smiles": "C/N=c1\\scc(-c2ccc(F)cc2)n1/N=C/c1ccc(O)c(O)c1", "values": [{"measurement": "IC50", "setting": "[11]", "result": "13 µM (not active)"}, {"measurement": "AC50", "setting": "[12]", "result": "12.2 µM (active)"}, {"measurement": "IC50", "setting": "[13]", "result": "> 14.6 µM (not active)"}, {"measurement": "IC50", "setting": "[14]", "result": "29.6 µM (active)"}, {"measurement": "EC50", "setting": "[15]", "result": "5.08 µM (active)"}, {"measurement": "EC50", "setting": "Mu-type opioid receptor", "result": "92.5 µM (inactive)"}]}
